Source: patent US9340577B2, “HLA binding motifs and peptides and their uses” (priority 1992, dated 2016)
Like-named read-outs stand apart in the source and are kept apart here. No end group written: not given here.

Legend:
Assay in all cases: biochemical
[1] = target: DR1 (DRB1*0101) (Homo sapiens, UniProt P01903+P01911, A100R/D57E/F55L/F60I/F76Y/I96L/L162R/M171V/P40L/Q125E/R42F/V115G/Y59C); format: binding
[2] = target: DR4w4 (DRB1*0401) (Homo sapiens, UniProt P01903+P01911, A100K/A169T/F76Y/I96L/K127E/L162R/M171V/N62H/P40V/Q125Y/R42H/S133A/S149N/S66Y/V115G/V209L/W38E); format: binding
[3] = target: DR7 (DRB1*0701) (Homo sapiens, UniProt P01903+P01911, A100R/A102G/A103Q/D57E/D86V/E43K/F76Y/K127E/L162R/M171V/P40G/Q125H/Q99D/R33Q/R42Y/R54Q/S133A/S66F/T210M/V115G/Y107V/Y59L/Y89S); format: binding
[4] = target: DRB1*0405 (Homo sapiens, UniProt P01903+P01911, A100R/A169T/D86S/F76Y/I96L/K127E/L162R/M171V/N62H/P40V/Q125Y/R42H/S133A/S149N/S66Y/V115G/V209L/W38E); format: binding
[5] = target: DRB1*0802 (Homo sapiens, UniProt P01903+P01911, A100R/A103L/A169T/F76Y/H45Y/I96F/K41T/L162R/M171V/P40S/Q125H/Q178H/Q39Y/Q99D/R218S/R42G/S66Y/V115G/W38E); format: binding
[6] = target: DRB1*0901 (Homo sapiens, UniProt P01903+P01911, A100R/A103E/D57H/D86V/F55Y/F60I/F76Y/I96F/K127E/L162R/M171V/P40D/Q125H/Q99R/R33Q/R42F/S133A/S66N/T210M/V115G/W38K/Y107V/Y59G/Y89S); format: binding
[7] = target: DRB1*1501 (Homo sapiens, UniProt P01903+P01911); format: binding
[8] = target: DRB4*0101 (Homo sapiens, UniProt P01903+P13762, G164S); format: binding
[9] = target: DRB1*1101 (Homo sapiens, UniProt P01903+P01911, A100R/A169T/A87E/I96F/K41T/L162R/M171V/P40S/Q125H/Q178H/Q39Y/Q99D/R42S/S66Y/T262R/V115G/W38E); details: Binding affinity DRB1 *1101
Sequence of DRB1*1101 (P01903 26-254 limits assumed, other chains not shown): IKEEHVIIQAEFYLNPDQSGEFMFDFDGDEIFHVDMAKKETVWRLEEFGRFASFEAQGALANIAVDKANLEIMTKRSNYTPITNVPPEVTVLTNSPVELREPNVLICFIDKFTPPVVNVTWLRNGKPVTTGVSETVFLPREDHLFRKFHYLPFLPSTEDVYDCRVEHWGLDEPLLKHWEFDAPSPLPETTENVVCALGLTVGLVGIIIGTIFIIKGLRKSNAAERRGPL

[10] = target: DRB5*0101 (Homo sapiens, UniProt P01903+Q30154)
[11] = target: DRB1*1302 (Homo sapiens, UniProt P01903+P01911, A100E/A169T/K41T/L162R/M171V/P40S/Q125H/Q178H/Q39Y/Q99D/R42S/S66N/T262R/V115G/W38E/Y61H); format: binding
Sequence of DRB1*1302 (P01903 26-254 limits assumed, other chains not shown): as above

Molecule	IC50 [1] [µM]	IC50 [2] [µM]	IC50 [3] [µM]	IC50 [4] [µM]	IC50 [5] [µM]	IC50 [6] [µM]	IC50 [7] [µM]	IC50 [8] [µM]	IC50 [9] [µM]	IC50 ([10]; Binding affinity DRB5 *0101) [µM]	IC50 [11] [µM]	IC50 [10] [µM]
CC[C@H](C)[C@H](NC(=O)[C@H](C)NC(=O)[C@H](CCCCN)NC(=O)[C@@H](N)Cc1c[nH]cn1)C(=O)N[C@@H](CCC(=O)O)C(=O)N[C@@H](CC(C)C)C(=O)N[C@@H](CCC(N)=O)C(=O)N[C@@H](CCSC)C(=O)N[C@@H](C)C(=O)N[C@@H](CC(C)C)C(=O)N[C@@H](CCC(N)=O)C(=O)NCC(=O)N[C@@H](CC(C)C)C(=O)N[C@@H](C)C(=O)N[C@@H](CCC(N)=O)C(=O)O [Peptide 89.0160]	> 20	0.35	> 20	> 20	> 20	> 20	1.28	3.47	16.8	> 20		
CWTYFDNYMRNALDG [Peptide 89.0090]		3.59	2.91	4.88	3.69	> 20		2.04	> 20		> 20	
ELQMALETLSKSQYS [Peptide 89.0183]	0.08	0.434	3.14	3.29		0.204		> 20		10.6	4.3	
ESDMAFQYAQLADCN [Peptide 89.0085]	0.011	0.233	3.25	19.7	5.92		7.42	0.048	20	7.69	0.224	
ETHMVIEPPKLRSAT [Peptide 89.0103]		0.778	> 20	3.54	12.2	> 20		3.91	3.26	2.87	1.46	
HALFTAQEAKQHRDA [Peptide 89.0001]		0.205	> 20	4.75		> 20	> 20	> 20	> 20	7.16	> 20	
HQVVPALSVSKAKAL [Peptide 89.0169]	0.099	0.398	4.73	15.5	> 20	1.62	> 20	> 20	> 20	> 20		
HQVVPPMAVSKAKAC [Peptide 90.0012]	0.68	2.34	0.434	> 20			> 20	0.645	7.01	5.79	0.908	
HQVVPSLVASKTKAF [Peptide 90.0023]	> 20	> 20	2.73	> 20	> 20	> 20	> 20	> 20	> 20	> 20		
IAYYYAQLADSNSNA [Peptide 89.0072]	0.382	0.753		4.87	7.81	3.09	0.097	2.39	> 20	> 20	> 20	
ILLYGAANTGKSLFG [Peptide 89.0018]	0.23	0.15	6.13	> 20	1.75	> 20		5.06	2.76	1.58	2.69	
ITHIGHQVVPPMAVS [Peptide 90.0010]	0.05	0.235	4.99	17.1	12.2	> 20	10.1	1.22	> 20	> 20		
LIQLKCPPILLTTNI [Peptide 89.0038]	0.015	3.8	0.99	3.95		> 20	6.8	0.158	> 20	> 20	> 20	
LKEFLKGTPKKNCIL [Peptide 89.0086]		1.62	5.43	14.9	3.2	11.9	7.81	2.41		4.66	6.61	
LLQLKCPPILLTSNI [Peptide 89.0091]	0.037	1.44	0.613	> 20	7.29	> 20		0.122	> 20	> 20		
LNTVKIPPTVQISTG [Peptide 90.0028]	8.74	> 20	> 20	> 20	> 20	6.92		> 20	> 20	> 20	0.778	
LVQLKCPPLLLTSNT [Peptide 89.0077]	0.051	4.03	1.09	3.5		11.7	0.774	0.307	17.6	4.49	2	
QEQMLIQPPKIRSPA [Peptide 89.0124]	> 20	0.991	7.22	8.05	> 20		> 20	1.64			> 20	
QQLLQVQTAHADKQT [Peptide 89.0115]	1.11	5.5	> 20	> 20	> 20	> 20	10.5	0.932			> 20	0.086
RDSVDSAPILTAFNS [Peptide 89.0156]	7.45	0.02	0.335	> 20	> 20		4.84	1.31	7.05	> 20	0.025	
SRVIVCPTSIPSDQI [Peptide 90.0027]	> 20	1.91	> 20	6.14		> 20	> 20	> 20	> 20	> 20	2	
SWGMVVLLLVRYKCG [Peptide 89.0005]		4.67		0.401	> 20	0.777	4.15	4.2	2.11	> 20		
TLAVSKNKALQAIEL [Peptide 89.0150]		> 20	> 20	1.64	> 20	5.22	> 20	0.036	> 20	> 20		
TPEWIEQQTVLQHSF [Peptide 89.0104]	0.949		> 20	2.88	14.1	> 20	13	> 20	> 20	5.46	> 20	
TYGVSFMELVRPFKS [Peptide 89.0095]		> 20	7.57	> 20	> 20	> 20	0.592	0.389		9.07	0.598	
YFKLFLQGTPKHNCL [Peptide 89.0133]	> 20	0.109	> 20	6.12	> 20	> 20	> 20	0.081		> 20	0.193	
